We go through ten compounds from patent publication US20240148821A1, “PHARMACEUTICAL USE OF CYCLIC PEPTIDE COMPOUND” (CHUGAI SEIYAKU KABUSHIKI KAISHA, priority 2021, published 2024).

Structures are written as SMILES. Bridge positions count the residues as written; N and C are the ends. Square brackets hold non-standard residues; d marks the D form. Peptide text beside a SMILES is read from it. * marks the point of attachment. hPhe(3-Cl-4-CF3) = N[C@@H](CCc1ccc(C(F)(F)F)c(Cl)c1)C(=O)O; NMePhe(4-CF3) = CN[C@@H](Cc1ccc(C(F)(F)F)cc1)C(=O)O; hPhe(4-CF3) = N[C@@H](CCc1ccc(C(F)(F)F)cc1)C(=O)O; NEtPhe(4-Cl) = CCN[C@@H](Cc1ccc(Cl)cc1)C(=O)O; NMePhe(4-Cl) = CN[C@@H](Cc1ccc(Cl)cc1)C(=O)O; NMePhe(4-Me) = CN[C@@H](Cc1ccc(C)cc1)C(=O)O; NMePhe(2-Cl) = CN[C@@H](Cc1ccccc1Cl)C(=O)O; NMeGly(cPent) = CN[C@H](C(=O)O)C1CCCC1; Phe(3-I) = N[C@@H](Cc1cccc(I)c1)C(=O)O; NMeCha = CN[C@@H](CC1CCCCC1)C(=O)O; NEtLeu = CCN[C@@H](CC(C)C)C(=O)O; NMeChg = CN[C@H](C(=O)O)C1CCCCC1; NMeD = CN[C@@H](CC(=O)O)C(=O)O; NMeL = CN[C@@H](CC(C)C)C(=O)O; hLeu = CC(C)CC[C@H](N)C(=O)O; NMeNva = CCC[C@H](NC)C(=O)O; NMeV = CN[C@H](C(=O)O)C(C)C; d(β3hA) = C[C@@H](N)CC(=O)O; NMeS = CN[C@@H](CO)C(=O)O; NMeA = CN[C@@H](C)C(=O)O; NMeAib = CNC(C)(C)C(=O)O; Nle = CCCC[C@H](N)C(=O)O; Piperidide = C1CCN(*)CC1; Pyrrolidide = C1CCN(*)C1; Ac5c = NC1(C(=O)O)CCCC1; Aze = O=C(O)[C@@H]1CCN1; Ac4c = NC1(C(=O)O)CCC1; CH2CMe2OH = CC(C)(O)C*; NBuGly = CCCCNCC(=O)O; βAla = NCCC(=O)O; Sar = CNCC(=O)O

The subject of this test is Human pancreatic cancer cell line AsPC-1 (G12D mutation Kras). The test can be described thus: AsPC-1 cell growth inhibition (AsPC-1 CGI). It is filed as cell-based. The settings on record: read-out: AsPC-1 cell growth inhibition, 50% growth inhibitory concentration (IC50 value); 96 hours, CellTiter-Glo, values classified in ranges.
Experimental: Test compounds were serially dilated with dimethyl sulfoxide, and 200 nL was then dispensed to a U-bottom 96-well plate using Labcyte Echo. […] The cell suspension was dispensed to a. plate containing a test compound at 100 μL per well and incubated at 37° C. in a 5% carbon dioxide gas incubator. 96 hours later, 80 μL of CellTiter-Glo (Promega) was added to each well and fluorescence was measured.
`CC[C@H](C)[C@@H]1NC(=O)CCNC(=O)[C@H](COCC(C)(C)O)N(C)C(=O)[C@H](C2CCCCC2)N(C)C(=O)C2(CCCC2)NC(=O)[C@@H]2CCCN2C(=O)[C@H](CCc2ccc(C(F)(F)F)c(Cl)c2)NC(=O)CN(C)C(=O)[C@H](CC2CCCCC2)N(C)C(=O)CN(C)C(=O)CN(C)C1=O` [Compound 605] (cyclo([Ac5c][NMeChg][NMeS](CH2CMe2OH)[βAla]I[Sar][Sar][NMeCha][Sar][hPhe(3-Cl-4-CF3)]P)): the IC50 was more than 500 nM.
Under `CCC[C@H]1C(=O)N(C)CC(=O)N[C@@H](CCc2ccc(C(F)(F)F)c(Cl)c2)C(=O)N2CCC[C@H]2C(=O)NC2(CCCC2)C(=O)N(C)[C@@H](C(C)C)C(=O)N(C)[C@H](C(=O)N2CCCCC2)CC(=O)N(C)[C@@H](CC(C)C)C(=O)N[C@@H]([C@@H](C)CC)C(=O)N(C)[C@@H](C)C(=O)N2CC[C@H]2C(=O)N1C` [Compound 1027] ([NMeL]I[NMeA][Aze][NMeNva][Sar][hPhe(3-Cl-4-CF3)]P[Ac5c][NMeV][NMeD]-Piperidide; lactam N-11) stands more than 500 nM; under `CCCC[C@@H]1NC(=O)[C@H](Cc2cccc(I)c2)NC(=O)CN(C)C(=O)[C@H](Cc2ccc(C(F)(F)F)cc2)N(C)C(=O)CN(C)C(=O)CN(C)C(=O)[C@H]([C@@H](C)CC)NC(=O)[C@H](CC(C)C)N(C)C(=O)C[C@@H](C(=O)N2CCCCC2)N(C)C(=O)[C@H](CCC(C)C)NC(=O)C(C)(C)N(C)C1=O` [Compound 1433] ([NMeL]I[Sar][Sar][NMePhe(4-CF3)][Sar][Phe(3-I)][Nle][NMeAib][hLeu][NMeD]-Piperidide; lactam N-11), more than 500 nM; under `CC[C@H](C)[C@@H]1NC(=O)[C@H](C(C)C)N(C)C(=O)C[C@@H](C)NC(=O)[C@H](CC(C)C)N(C)C(=O)C2(CCCC2)NC(=O)[C@H](CC(C)C)N(C)C(=O)[C@H](CCc2ccc(C(F)(F)F)cc2)NC(=O)CN(C)C(=O)[C@H](Cc2ccc(Cl)cc2)N(C)C(=O)[C@@H]2CCN2C(=O)CN(C)C1=O` [Compound 645] (cyclo([Ac5c][NMeL][d(β3hA)][NMeV]I[Sar][Aze][NMePhe(4-Cl)][Sar][hPhe(4-CF3)][NMeL])), more than 500 nM.
Under `CCCC[C@@H]1NC(=O)[C@H](CCc2ccc(C(F)(F)F)c(Cl)c2)NC(=O)CN(C)C(=O)[C@H](Cc2ccc(Cl)cc2)N(CC)C(=O)CN(C)C(=O)CN(C)C(=O)[C@H]([C@@H](C)CC)NC(=O)[C@H](CC(C)C)N(C)C(=O)C[C@@H](C(=O)N2CCCCC2)N(C)C(=O)[C@H](CC(C)C)NC(=O)C(C)(C)N(C)C1=O` [Compound 895] ([NMeL]I[Sar][Sar][NEtPhe(4-Cl)][Sar][hPhe(3-Cl-4-CF3)][Nle][NMeAib]L[NMeD]-Piperidide; lactam N-11) stands more than 500 nM; under `CC(C)C[C@H]1C(=O)N[C@@H](CO)C(=O)N(C)CC(=O)N(C)CC(=O)N(C)[C@@H](CC2CCCCC2)C(=O)N(C)CC(=O)N[C@@H](CCc2ccc(C(F)(F)F)c(Cl)c2)C(=O)N2CCC[C@H]2C(=O)NC2(CCCC2)C(=O)N(C)[C@@H](C2CCCCC2)C(=O)N(C)[C@H](C(=O)N2CCCCC2)CC(=O)N1C` [Compound 1799] ([NMeL]S[Sar][Sar][NMeCha][Sar][hPhe(3-Cl-4-CF3)]P[Ac5c][NMeChg][NMeD]-Piperidide; lactam N-11), more than 500 nM.
Regarding `CCCCN1CC(=O)N(C)CC(=O)N(C)[C@@H](CC2CCCCC2)C(=O)N(C)CC(=O)N[C@@H](CCc2ccc(C(F)(F)F)c(Cl)c2)C(=O)N2CCC[C@H]2C(=O)NC2(CCCC2)C(=O)N(C)[C@@H](C(C)C)C(=O)N[C@H](C)CC(=O)N(C)[C@@H](CC(C)C)C(=O)N[C@@H]([C@@H](C)CC)C1=O` [Compound 123] (cyclo([Ac5c][NMeV][d(β3hA)][NMeL]I[NBuGly][Sar][NMeCha][Sar][hPhe(3-Cl-4-CF3)]P)), the IC50 was more than 500 nM.
In the case of `CC[C@H](C)[C@@H]1NC(=O)[C@H](CC(C)C)N(CC)C(=O)C[C@@H](C(=O)N(C)C)N(C)C(=O)[C@H](C2CCCC2)N(C)C(=O)C2(CCCC2)NC(=O)[C@@H]2CCCN2C(=O)[C@H](CCc2ccc(C(F)(F)F)c(Cl)c2)NC(=O)CN(C)C(=O)[C@H](Cc2ccc(C)cc2)N(C)C(=O)[C@@H]2CCN2C(=O)[C@H](C)NC1=O` [Compound 1282] ([NEtLeu]IA[Aze][NMePhe(4-Me)][Sar][hPhe(3-Cl-4-CF3)]P[Ac5c][NMeGly(cPent)][NMeD]-NMe2; lactam N-11) it was not above 20 nM.
For the compound `CC[C@H](C)[C@@H]1NC(=O)[C@H](CC(C)C)N(C)C(=O)C[C@@H](C(=O)N(C)C)N(C)C(=O)[C@H](C2CCCC2)N(C)C(=O)C2(CCCC2)NC(=O)[C@H](Cc2ccc(Cl)cc2)N(C)C(=O)[C@H](CCc2ccc(C(F)(F)F)c(Cl)c2)NC(=O)CN(C)C(=O)[C@H](CC2CCCCC2)N(C)C(=O)[C@@H]2CCN2C(=O)[C@H](C)N(C)C1=O` [Compound 1063] ([NMeL]I[NMeA][Aze][NMeCha][Sar][hPhe(3-Cl-4-CF3)][NMePhe(4-Cl)][Ac5c][NMeGly(cPent)][NMeD]-NMe2; lactam N-11), the IC50 is more than 500 nM.
In the case of `CC[C@H](C)[C@@H]1NC(=O)[C@H](C)N(C)C(=O)C[C@@H](C(=O)N2CCCC2)N(C)C(=O)[C@H](C(C)C)N(C)C(=O)C2(CCC2)NC(=O)[C@H](Cc2ccccc2Cl)N(C)C(=O)[C@H](CCc2ccc(C(F)(F)F)c(Cl)c2)NC(=O)CN(C)C(=O)[C@H](CC2CCCCC2)N(C)C(=O)CN(C)C(=O)CN(C)C1=O` [Compound 906] ([NMeA]I[Sar][Sar][NMeCha][Sar][hPhe(3-Cl-4-CF3)][NMePhe(2-Cl)][Ac4c][NMeV][NMeD]-Pyrrolidide; lactam N-11), the IC50 is more than 500 nM.
